Our source for the IC50 values is patent publication US10538555B2, “Macrocyclic inhibitors of the PD-1/PD-L1 and CD80(B7-1)/PD-L1 protein/protein interactions” (BRISTOL-MYERS SQUIBB COMPANY, priority 2014, dated 2020).

Molecules are shown by their SMILES. *1 amine or outer side, *2 acyl side, *3 side chain or, on linkers, in order; H or OH if unused. Where a SMILES comes first, the peptide text is derived from it. Bridges are numbered along the chain shown (N, C = ends). [ ]: non-standard residue; d: D form. ξ: configuration not given here. X11 = CCCC[C@@H](C(=O)C1C[C@H](O)C[C@@H]1C(=O)[*:2])N(C)[*:1]; Phe(3,4,5-F3) = N[C@@H](Cc1cc(F)c(F)c(F)c1)C(=O)O; Phe(3,4-F2) = N[C@@H](Cc1ccc(F)c(F)c1)C(=O)O; d(cisHyp) = O=C(O)[C@H]1C[C@@H](O)CN1; Bta = N[C@@H](Cc1csc2ccccc12)C(=O)O; Hyp = O=C(O)[C@@H]1C[C@@H](O)CN1; NMeF = CN[C@@H](Cc1ccccc1)C(=O)O; X1 = O=C([C@H]1COCCN1[*:1])[*:2]; NMeNle = CCCC[C@H](NC)C(=O)O; dPip = O=C(O)[C@H]1CCCCN1; hSer = N[C@@H](CCO)C(=O)O; NMeA = CN[C@@H](C)C(=O)O; Orn = NCCC[C@H](N)C(=O)O; Dab = NCC[C@H](N)C(=O)O; ξP = O=C(O)C1CCCN1

The target in this assay is T1, Human PD-L1/PD-1 (Homo sapiens, UniProt Q9NZQ7).
T1 construct: TVMV protease cleavage site (C); made in house; host or cells: HEK293T cells
T1 sequence (Q9NZQ7 with tags, fused parts or gaps): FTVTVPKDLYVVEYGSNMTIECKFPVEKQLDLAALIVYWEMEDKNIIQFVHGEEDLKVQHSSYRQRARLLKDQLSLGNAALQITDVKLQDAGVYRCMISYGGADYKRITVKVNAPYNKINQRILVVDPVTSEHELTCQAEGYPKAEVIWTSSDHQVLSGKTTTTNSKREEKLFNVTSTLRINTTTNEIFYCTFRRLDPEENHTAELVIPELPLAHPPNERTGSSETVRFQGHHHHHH
Briefly: HTRF Human PD-L1/PD-1 binding assay (PD-1-Ig/PD-L1-His). The settings on record: PD-L1-His 10 nM, PD-1-Ig 20 nM; class symbol; read-out: HTRF Human PD-L1/PD-1 Binding Assay IC50 Range. In outline: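 HTRF read-out (665/620 nm ratio) after 30 min equilibration with Eu-cryptate anti-Ig mAb (1 nM) and APC anti-His mAb (20 nM). Peptides preincubated 15 min with PD-L1-His (10 nM), then PD-1-Ig (20 nM) added for 15 min.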
With `CCCC[C@H]1C(=O)N2C[C@H](O)C[C@@H]2C(=O)N[C@@H](CC(=O)O)C(=O)N[C@@H](C(C)C)C(=O)N(C)[C@@H](Cc2ccccc2)C(=O)N[C@@H](Cc2ccc(O)cc2)C(=O)N2CCOC[C@@H]2C(=O)N[C@@H](Cc2c[nH]c3ccccc23)C(=O)N[C@@H](Cc2ccc(OC)cc2)C(=O)N[C@@H](CCOC)C(=O)N[C@H](C(=O)NCC(N)=O)CSCC(=O)N[C@@H](Cc2cc(F)c(F)c(F)c2)C(=O)N(C)[C@@H](Cc2ccccc2)C(=O)N1C` [Example 10179] ({CH2CO}-[Phe(3,4,5-F3)][NMeF][NMeNle][d(cisHyp)]DV[NMeF]Y[X1]WY(Me)[hSer](Me)CG-NH2; thioether N-13), the IC50 fell in the range of 10 to 99.9 nM. For `CCCC[C@H]1C(=O)N2C[C@H](O)C[C@@H]2C(=O)N[C@@H](CC(=O)O)C(=O)N[C@@H](C(C)C)C(=O)N(C)[C@@H](Cc2ccccc2)C(=O)N[C@@H](CC(=O)O)C(=O)N2C[C@H](O)C[C@@H]2C(=O)N[C@@H](Cc2c[nH]c3ccccc23)C(=O)N[C@@H](Cc2ccc(O)cc2)C(=O)N[C@@H](CC(N)=O)C(=O)N[C@H](C(=O)NCC(N)=O)CSCC(=O)N[C@@H](Cc2cc(F)c(F)c(F)c2)C(=O)N(C)[C@@H](Cc2ccccc2)C(=O)N1C` [Example 9352] ({CH2CO}-[Phe(3,4,5-F3)][NMeF][NMeNle][d(cisHyp)]DV[NMeF]D[d(cisHyp)]WYNCG-NH2; thioether N-13), the IC50 is 1 to 9.9 nM. Regarding `CCCC[C@H]1C(=O)N2CCOC[C@@H]2C(=O)N[C@@H](CC(=O)O)C(=O)N[C@@H](C(C)C)C(=O)N(C)[C@@H](Cc2ccccc2)C(=O)N[C@@H](CCC(=O)O)C(=O)N2CCOC[C@@H]2C(=O)N[C@@H](Cc2c[nH]c3ccccc23)C(=O)N[C@@H](Cc2ccc(O)cc2)C(=O)N[C@@H](CC(C)C)C(=O)N[C@H](C(=O)NCC(N)=O)CSCC(=O)N[C@@H](Cc2ccc(F)c(F)c2)C(=O)N(C)[C@@H](Cc2ccccc2)C(=O)N1C` [Example 9281] ({CH2CO}-[Phe(3,4-F2)][NMeF][NMeNle][X1]DV[NMeF]E[X1]WYLCG-NH2; thioether N-13), the IC50 lay in the range of 1 to 9.9 nM. Take `CCCC[C@H]1C(=O)N2C[C@H](O)C[C@@H]2C(=O)N[C@@H](CC(=O)O)C(=O)N[C@@H](C(C)C)C(=O)N(C)[C@@H](Cc2ccccc2)C(=O)N[C@@H](CC(=O)O)C(=O)N2CCC[C@@H]2C(=O)N[C@@H](Cc2c[nH]c3ccccc23)C(=O)N[C@@H](Cc2ccc(O)cc2)C(=O)N[C@@H](CCO)C(=O)N[C@H](C(=O)NCC(N)=O)CSCC(=O)N[C@@H](Cc2cc(F)c(F)c(F)c2)C(=O)N(C)[C@@H](Cc2ccccc2)C(=O)N1C` [Example 10155] ({CH2CO}-[Phe(3,4,5-F3)][NMeF][NMeNle][d(cisHyp)]DV[NMeF]D[dP]WY[hSer]CG-NH2; thioether N-13): the IC50 lay in the range of 1 to 9.9 nM. `CCCC[C@H]1C(=O)C2C[C@H](O)C[C@@H]2C(=O)N[C@@H](CC(=O)O)C(=O)N[C@@H](C(C)C)C(=O)N(C)[C@@H](Cc2ccccc2)C(=O)N[C@@H](CCC(=O)O)C(=O)N2CCCC[C@@H]2C(=O)N[C@@H](Cc2c[nH]c3ccccc23)C(=O)N[C@@H](Cc2ccc(O)cc2)C(=O)N[C@@H](CCCN)C(=O)N[C@H](C(=O)NCC(N)=O)CSCC(=O)N[C@@H](Cc2cc(F)c(F)c(F)c2)C(=O)N(C)[C@@H](Cc2ccccc2)C(=O)N1C` (some centres unmarked) [Example 3642] ({CH2CO}-[Phe(3,4,5-F3)][NMeF][X11]DV[NMeF]E[dPip]WY[Orn]CG-NH2; thioether N-12): the IC50 is 10 to 99.9 nM. The value for `CCCC[C@H]1C(=O)N(C)[C@@H](CCCC)C(=O)N[C@@H](CC(C)C)C(=O)N[C@H](C(=O)NCC(N)=O)CSCC(=O)N[C@@H](Cc2ccc(O)cc2)C(=O)N(C)[C@@H](C)C(=O)N[C@@H](CC(N)=O)C(=O)N2CCCC2C(=O)N[C@@H](Cc2cnc[nH]2)C(=O)N[C@@H](CCC(N)=O)C(=O)N[C@H](C)C(=O)N[C@@H](Cc2c[nH]c3ccccc23)C(=O)N[C@@H](CO)C(=O)N[C@@H](Cc2c[nH]c3ccccc23)C(=O)N1C` (some centres unmarked) [Example 6168] ({CH2CO}-Y[NMeA]N[ξP]HQ[dA]WSW[NMeNle][NMeNle]LCG-NH2; thioether N-14) was 10 to 99.9 nM; that for `CCCC[C@H]1C(=O)N2C[C@H](O)C[C@@H]2C(=O)N[C@@H](CC(=O)O)C(=O)N[C@@H](C(C)C)C(=O)N(C)[C@@H](Cc2ccccc2)C(=O)N[C@@H](Cc2ccc(OC)cc2)C(=O)N2CCOC[C@@H]2C(=O)N[C@@H](Cc2c[nH]c3ccccc23)C(=O)N[C@@H](Cc2ccc(O)cc2)C(=O)N[C@@H](CCOC)C(=O)N[C@H](C(=O)NCC(N)=O)CSCC(=O)N[C@@H](Cc2cc(F)c(F)c(F)c2)C(=O)N(C)[C@@H](Cc2ccccc2)C(=O)N1C` [Example 10180] ({CH2CO}-[Phe(3,4,5-F3)][NMeF][NMeNle][d(cisHyp)]DV[NMeF]Y(Me)[X1]WY[hSer](Me)CG-NH2; thioether N-13) was 10 to 99.9 nM; that for `CCCC[C@H]1C(=O)N(C)[C@@H](CCCC)C(=O)N[C@@H](CCCNC(=N)N)C(=O)N[C@H](C(=O)NCC(N)=O)CSCC(=O)N[C@@H](Cc2ccc(O)cc2)C(=O)N(C)[C@@H](C)C(=O)N[C@@H](CC(=O)O)C(=O)N2CCC[C@H]2C(=O)N[C@@H](Cc2c[nH]cn2)C(=O)N[C@@H](CC(C)C)C(=O)N2C[C@H](O)C[C@H]2C(=O)N[C@@H](Cc2c[nH]c3ccccc23)C(=O)N[C@@H](CCCCN)C(=O)N[C@@H](Cc2c[nH]c3ccccc23)C(=O)N1C` [Example 11003] ({CH2CO}-Y[NMeA]DPHL[Hyp]WKW[NMeNle][NMeNle]RCG-NH2; thioether N-14) was 1 to 9.9 nM.

Consider `CCCC[C@H]1C(=O)N(C)[C@@H](CCCC)C(=O)N[C@@H](CCC(=O)O)C(=O)N[C@H](C(=O)NCC(N)=O)CSCC(=O)N[C@@H](Cc2ccc(O)cc2)C(=O)N(C)[C@@H](C)C(=O)N[C@@H](CC(=O)O)C(=O)N2CCC[C@H]2C(=O)N[C@@H](Cc2c[nH]cn2)C(=O)N[C@@H](CCC(N)=O)C(=O)N2C[C@H](O)C[C@H]2C(=O)N[C@@H](Cc2c[nH]c3ccccc23)C(=O)N[C@@H](CO)C(=O)N[C@@H](Cc2csc3ccccc23)C(=O)N1C` [Example 5215] ({CH2CO}-Y[NMeA]DPHQ[Hyp]WS[Bta][NMeNle][NMeNle]ECG-NH2; thioether N-14), for which the IC50 was in the range of 1 to 9.9 nM.

In the case of `CCCC[C@H]1C(=O)N(C)[C@@H](CCCC)C(=O)N[C@@H](CCCN)C(=O)N[C@H](C(=O)NCC(N)=O)CSCC(=O)N[C@@H](Cc2ccc(OC)cc2)C(=O)N(C)[C@@H](C)C(=O)N[C@@H](CC(=O)O)C(=O)N2CCC[C@H]2C(=O)N[C@@H](Cc2cnc[nH]2)C(=O)N[C@@H](CCC(=O)O)C(=O)N2C[C@H](O)C[C@H]2C(=O)N[C@@H](Cc2c[nH]c3ccccc23)C(=O)N[C@@H](CCN)C(=O)N[C@@H](Cc2c[nH]c3ccccc23)C(=O)N1C` [Example 7098] ({CH2CO}-Y(Me)[NMeA]DPHE[Hyp]W[Dab]W[NMeNle][NMeNle][Orn]CG-NH2; thioether N-14), the IC50 was 1 to 9.9 nM. Next, `CCCC[C@H]1C(=O)N(C)[C@@H](CCCC)C(=O)N[C@@H](CCCN)C(=O)N[C@H](C(=O)NCC(N)=O)CSCC(=O)N[C@@H](Cc2ccc(OC)cc2)C(=O)N(C)[C@@H](C)C(=O)N[C@@H](CC(=O)O)C(=O)N2CCC[C@H]2C(=O)N[C@@H](Cc2cnc[nH]2)C(=O)N[C@@H](CCCCN)C(=O)N2C[C@H](O)C[C@H]2C(=O)N[C@@H](Cc2c[nH]c3ccccc23)C(=O)N[C@@H](CC(=O)O)C(=O)N[C@@H](Cc2c[nH]c3ccccc23)C(=O)N1C` [Example 7106] ({CH2CO}-Y(Me)[NMeA]DPHK[Hyp]WDW[NMeNle][NMeNle][Orn]CG-NH2; thioether N-14): 1 to 9.9 nM.
